In US20230226176A1, “NOVEL IMMUNE ADJUVANT AND VACCINE COMPOSITION INCLUDING THE SAME” (REPUBLIC OF KOREA (ANIMAL AND PLANT […]), priority 2020, published 2023):

B1: IL-4: rpIL-4 (R&D Systems, 20 ng/mL) for M2 MΦ polarization (protein, UniProt Q04745 25-133, looked up)
Interleukin-4: HKCDITLQEIIKTLNILTARKNSCMELPVTDVFAAPENTTEKETFCRASTVLRHIYRHHTCMKSLLSGLDRNLSSMANMTCSVHEAKKSTLKDFLERLKTIMKEKYSKC

Key:
porcine naive PBMCs = assay type: cell-based, pigs
FMDV = test system: FMDV; set-up: species or system C57BL/6 mice; conditions: mouse, in vivo
SP antibodies in serum = test system: SP antibodies in serum; set-up: species or system C57BL/6 mice; conditions: mouse, in vivo
porcine Mo-DCs [1] = assay: Inhibition of phagocytosis by cytochalasin D, cytokine ELISA in Mo-DCs; conditions: 5 μg/mL CytD 45 min before 1 μg/mL antigen
porcine Mo-MΦs [2] = assay: Inhibition of phagocytosis by cytochalasin D, cytokine ELISA in Mo-MΦs
porcine PBMCs = assay type: cell-based, pigs; conditions: 12 hours
porcine Mo-DCs [3] = assay type: cell-based, pigs
porcine Mo-MΦs [4] = assay type: cell-based, pigs

Molecule	Cell proliferation, rank order (porcine naive PBMCs)	VN titers (FMDV)	increase of neutralizing antibody (VN titers) (FMDV)	antibody titers measured by SP-O ELISA compared to the control (SP antibodies in serum)	other results
Nc1nc2ncc(C=O)nc2c(=O)[nH]1 [6-Formylpterin (F), 6-formylpterin]	>antigen+T cell agonist (R)	high levels	–	–	antibody titers measured by SP-O ELISA (SP antibodies in serum): increased
C=C1[C@@H](C)[C@H]2[C@H](Cc3ccccc3)NC(=O)[C@]23[C@H](OC(C)=O)/C=C/[C@@](C)(O)C(=O)[C@@H](C)C/C=C/[C@H]3[C@@H]1O [CytD, cytochalasin D]	–	–	–	–	expression of cytokine when antigen is co-cultured after CytD treatment (porcine Mo-DCs [1]): significantly suppressed; expression of cytokine when antigen is co-cultured after CytD treatment (porcine Mo-MΦs [2]; 5 μg/mL CytD 45 min before 1 μg/mL antigen): significantly suppressed; IL-10 expression after CytD treatment (porcine Mo-MΦs [2]; not significantly different from pretreatment levels): slightly suppressed
C/C(=C\COP(=O)([O-])OP(=O)([O-])[O-])CO.[Li+].[Li+].[Li+] [HMP (H), (E)-1-hydroxy-2-methyl-2-butenyl 4-pyrophosphate lithium salt]	>antigen+iNKT cell agonist (G)	–	approximately 100 fold	significantly higher	–
C=C(C)CCOP(=O)([O-])OP(=O)([O-])[O-].[Li+].[Li+].[Li+] [IPP (I), Isopentenyl pyrophosphate trilithium salt]	>antigen alone	highest	approximately 100 fold	significantly higher	–
CCCCCCCCCCCCCCCCCCCCCCCCCC(=O)N[C@@H](CO[C@H]1O[C@H](CO)[C@H](O)[C@H](O)[C@H]1O)[C@H](O)[C@H](O)CCCCCCCCCCCCCC [α-Gal (G), α-galactosyl ceramide]	>antigen+MAIT cell agonist (F)	highest	approximately 100 fold	significantly higher	IL23A and IL23R expression (porcine PBMCs): specifically highly expressed
TNFα	–	–	–	–	IL-1β (porcine Mo-DCs [3]): 432.97; IL-6 (porcine Mo-DCs [3]): 201.33; IL-10 (porcine Mo-DCs [3]): 10.85; IL-12/23p40 (porcine Mo-DCs [3]): 135.67; TNFα (porcine Mo-DCs [3]): 74.00
B1	–	–	–	–	IL-1β (porcine Mo-MΦs [4]): 223.43; IL-10 (porcine Mo-MΦs [4]): 1.88; IL-12/23p40 (porcine Mo-MΦs [4]): 29.00
